Numbers after ± are expanded uncertainties.
Assay: mn = molality of the nth substance listed, in mol/kg
Details: 298.15 K, 101 kPa, Liquid; for molar conductivity: Alternating current cell with electrodes; for mass density: Pycnometric method

Row | molar conductivity (m1 = 0.05) [S·m2/mol] | molar conductivity (m1 = 0.1) [S·m2/mol] | molar conductivity (m1 = 0.15) [S·m2/mol] | molar conductivity (m1 = 0.25) [S·m2/mol] | molar conductivity (m1 = 0.5) [S·m2/mol] | molar conductivity (m1 = 0.75) [S·m2/mol] | molar conductivity (m1 = 1) [S·m2/mol] | mass density (m1 = 0.05) [kg/m3] | mass density (m1 = 0.1) [kg/m3] | mass density (m1 = 0.15) [kg/m3] | mass density (m1 = 0.25) [kg/m3] | mass density (m1 = 0.5) [kg/m3] | mass density (m1 = 0.75) [kg/m3] | mass density (m1 = 1) [kg/m3] | mass density (m1 = 0.02) [kg/m3] | mass density (m1 = 0.06) [kg/m3] | mass density (m1 = 0.2) [kg/m3] | SMILES
1 | 0.00906 ± 0.00054 | 0.0085 ± 0.00051 | 0.008 ± 0.00048 | 0.00714 ± 0.00043 | 0.00547 ± 0.00033 | 0.00419 ± 0.00025 | 0.00389 ± 0.00023 | 999 ± 0.89 | 1000.85 ± 0.89 | 1002.63 ± 0.9 | 1006.1 ± 0.9 | 1014.2 ± 0.91 | 1021.57 ± 0.91 | 1028.25 ± 0.92 | – | – | – | CCCCn1cc[n+](C)c1.F[B-](F)(F)F [1-butyl-3-methylimidazolium tetrafluoroborate] + O
2 | – | – | – | – | – | – | – | – | 1009.9 ± 0.89 | 1016.06 ± 0.9 | 1027.95 ± 0.91 | – | – | – | 999.72 ± 0.88 | 1004.87 ± 0.89 | 1022.12 ± 0.91 | OC[C@H]1O[C@@](CO)(O[C@H]2O[C@H](CO)[C@@H](O)[C@H](O)[C@H]2O)[C@@H](O)[C@@H]1O [D-sucrose] + O
